Measurements reported in patent publication US20260283924A1, “TOPICAL COMPOSITIONS FOR PROMOTING HAIR GROWTH” (ESTETRA SRL, priority 2023, published 2026).

System: occipital hair follicles (healthy donor)
Assay: Healthy donor hair follicle organ culture (ex vivo model), Example 8
Type: cell-based, human
Settings: 300 nM
Experimental: In brief, 24 full-length occipital hair follicles (HF) were obtained from one healthy donor. […] Test substance (either vehicle (0.03% EtOH), E2 at concentration of 300 nM or E4 at concentrations of 3 μM or 300 nM) was added to the medium at the end of the 24 h. Total culturing time was 5 days depending on the stage of the HFs in the vehicle group. The experimental design is depicted in FIG. 23.

SMILES: C[C@]12CC[C@@H]3c4ccc(O)cc4CC[C@H]3[C@@H]1CC[C@@H]2O [Formulation E2, 17beta-estradiol]
- K15 expression in the suprabulbar outer root sheath: tendentially increased
- area of the dermal papilla: no effect
- density of cells in the dermal cup of anagen HFs: no effect
- density of cells in the dermal papilla: no effect
- density of cells in the dermal papilla stalk: no effect
- hair matrix keratinocyte proliferation: tendentially increased
- hair shaft production (reduction vs vehicle): significantly reduced
- microscopic hair cycle: did not affect the hair cycle
- number of CD34+ cells in the suprabulbar outer root sheath: no effect
- number of cells (K15) in the suprabulbar outer root sheath: tendentially increased
- total number of cells in the dermal cup of anagen HFs: no effect
- total number of cells in the dermal papilla: no effect
- total number of cells in the dermal papilla stalk: no effect
- K15 expression in the suprabulbar outer root sheath (listed as Estradiol): tendentially increase K15 expression
- area of the dermal papilla (listed as Estradiol): does not display a significant effect
- density of cells in the dermal cup of anagen HFs (listed as Estradiol): does not display a significant effect
- density of cells in the dermal papilla (listed as Estradiol): does not display a significant effect
- density of cells in the dermal papilla stalk (listed as Estradiol): does not display a significant effect
- hair matrix keratinocyte proliferation (listed as Estradiol): increased
- hair shaft production (reduction vs vehicle) (listed as Estradiol): Reduction of hair shaft production
- microscopic hair cycle (listed as Estradiol): does not affect hair cycle
- number of CD34+ cells in the suprabulbar outer root sheath (listed as Estradiol): does not display any effect
- number of cells (K15) in the suprabulbar outer root sheath (listed as Estradiol): tendentially increase
- total number of cells in the dermal cup of anagen HFs (listed as Estradiol): does not display a significant effect
- total number of cells in the dermal papilla (listed as Estradiol): does not display a significant effect
- total number of cells in the dermal papilla stalk (listed as Estradiol): does not display a significant effect
